Measurements as given in the NIST ThermoML archive (doi:10.1021/je200721d).
Numbers after ± are expanded uncertainties.

Test: xn = mol fraction of the nth substance listed
Conditions: Liquid, Vibrating tube method

CCCCCCCCCC [decane] + CCCCCC
Conditions | mass density [kg/m3]
342.8 K, 1000 kPa, x2 = 0.8991 | 626.74 ± 0.28
342.8 K, 2000 kPa, x2 = 0.8991 | 628.11 ± 0.29
342.8 K, 3000 kPa, x2 = 0.8991 | 629.48 ± 0.3
342.8 K, 4000 kPa, x2 = 0.8991 | 630.85 ± 0.31
342.8 K, 5000 kPa, x2 = 0.8991 | 632.19 ± 0.32
342.8 K, 6000 kPa, x2 = 0.8991 | 633.52 ± 0.32
342.8 K, 7000 kPa, x2 = 0.8991 | 634.85 ± 0.33
342.8 K, 8000 kPa, x2 = 0.8991 | 636.16 ± 0.34
342.8 K, 9000 kPa, x2 = 0.8991 | 637.46 ± 0.35
342.8 K, 10000 kPa, x2 = 0.8991 | 638.73 ± 0.36
342.8 K, 11000 kPa, x2 = 0.8991 | 639.99 ± 0.37
342.8 K, 12000 kPa, x2 = 0.8991 | 641.23 ± 0.38
342.8 K, 13000 kPa, x2 = 0.8991 | 642.43 ± 0.39
342.8 K, 14000 kPa, x2 = 0.8991 | 643.64 ± 0.4
342.8 K, 15000 kPa, x2 = 0.8991 | 644.8 ± 0.41
342.8 K, 16000 kPa, x2 = 0.8991 | 645.95 ± 0.42
342.8 K, 17000 kPa, x2 = 0.8991 | 647.07 ± 0.43
342.8 K, 18000 kPa, x2 = 0.8991 | 648.18 ± 0.44
342.8 K, 19000 kPa, x2 = 0.8991 | 649.24 ± 0.45
342.8 K, 20000 kPa, x2 = 0.8991 | 650.3 ± 0.46
342.8 K, 21000 kPa, x2 = 0.8991 | 651.32 ± 0.47
342.8 K, 22000 kPa, x2 = 0.8991 | 652.31 ± 0.48
342.8 K, 23000 kPa, x2 = 0.8991 | 653.28 ± 0.49
342.8 K, 24000 kPa, x2 = 0.8991 | 654.23 ± 0.51
342.8 K, 25000 kPa, x2 = 0.8991 | 655.16 ± 0.52
343.05 K, 1000 kPa, x2 = 0.0456 | 690.21 ± 0.26
343.05 K, 2000 kPa, x2 = 0.0456 | 691.25 ± 0.26
343.05 K, 3000 kPa, x2 = 0.0456 | 692.26 ± 0.27
343.05 K, 4000 kPa, x2 = 0.0456 | 693.3 ± 0.28
343.05 K, 5000 kPa, x2 = 0.0456 | 694.32 ± 0.28
343.05 K, 6000 kPa, x2 = 0.0456 | 695.32 ± 0.29
343.05 K, 7000 kPa, x2 = 0.0456 | 696.31 ± 0.3
343.05 K, 8000 kPa, x2 = 0.0456 | 697.29 ± 0.31
343.05 K, 9000 kPa, x2 = 0.0456 | 698.26 ± 0.31
343.05 K, 10000 kPa, x2 = 0.0456 | 699.22 ± 0.32
343.05 K, 11000 kPa, x2 = 0.0456 | 700.16 ± 0.33
343.05 K, 12000 kPa, x2 = 0.0456 | 701.08 ± 0.34
343.05 K, 13000 kPa, x2 = 0.0456 | 702 ± 0.34
343.05 K, 14000 kPa, x2 = 0.0456 | 702.89 ± 0.35
343.05 K, 15000 kPa, x2 = 0.0456 | 703.77 ± 0.36
343.05 K, 16000 kPa, x2 = 0.0456 | 704.64 ± 0.37
343.05 K, 17000 kPa, x2 = 0.0456 | 705.5 ± 0.38
343.05 K, 18000 kPa, x2 = 0.0456 | 706.36 ± 0.38
343.05 K, 19000 kPa, x2 = 0.0456 | 707.2 ± 0.39
343.05 K, 20000 kPa, x2 = 0.0456 | 708.02 ± 0.4
343.05 K, 21000 kPa, x2 = 0.0456 | 708.84 ± 0.41
343.05 K, 22000 kPa, x2 = 0.0456 | 709.65 ± 0.42
343.05 K, 23000 kPa, x2 = 0.0456 | 710.45 ± 0.43
343.05 K, 24000 kPa, x2 = 0.0456 | 711.25 ± 0.43
343.05 K, 25000 kPa, x2 = 0.0456 | 712.03 ± 0.44
343.06 K, 1000 kPa, x2 = 0.2185 | 681.09 ± 0.26
343.06 K, 1000 kPa, x2 = 0.7524 | 641.66 ± 0.28
343.06 K, 2000 kPa, x2 = 0.2185 | 682.19 ± 0.27
343.06 K, 2000 kPa, x2 = 0.7524 | 643.07 ± 0.28
343.06 K, 3000 kPa, x2 = 0.2185 | 683.33 ± 0.27
343.06 K, 3000 kPa, x2 = 0.7524 | 644.43 ± 0.29
343.06 K, 4000 kPa, x2 = 0.2185 | 684.4 ± 0.28
343.06 K, 4000 kPa, x2 = 0.7524 | 645.8 ± 0.3
343.06 K, 5000 kPa, x2 = 0.2185 | 685.47 ± 0.29
343.06 K, 5000 kPa, x2 = 0.7524 | 647.1 ± 0.31
343.06 K, 6000 kPa, x2 = 0.2185 | 686.52 ± 0.3
343.06 K, 6000 kPa, x2 = 0.7524 | 648.4 ± 0.32
343.06 K, 7000 kPa, x2 = 0.2185 | 687.54 ± 0.3
343.06 K, 7000 kPa, x2 = 0.7524 | 649.65 ± 0.33
343.06 K, 8000 kPa, x2 = 0.2185 | 688.57 ± 0.31
343.06 K, 8000 kPa, x2 = 0.7524 | 650.88 ± 0.34
343.06 K, 9000 kPa, x2 = 0.2185 | 689.57 ± 0.32
343.06 K, 9000 kPa, x2 = 0.7524 | 652.12 ± 0.34
343.06 K, 10000 kPa, x2 = 0.2185 | 690.55 ± 0.33
343.06 K, 10000 kPa, x2 = 0.7524 | 653.31 ± 0.35
343.06 K, 11000 kPa, x2 = 0.2185 | 691.53 ± 0.34
343.06 K, 11000 kPa, x2 = 0.7524 | 654.46 ± 0.36
343.06 K, 12000 kPa, x2 = 0.2185 | 692.48 ± 0.34
343.06 K, 12000 kPa, x2 = 0.7524 | 655.59 ± 0.37
343.06 K, 13000 kPa, x2 = 0.2185 | 693.45 ± 0.35
343.06 K, 13000 kPa, x2 = 0.7524 | 656.72 ± 0.38
343.06 K, 14000 kPa, x2 = 0.2185 | 694.36 ± 0.36
343.06 K, 14000 kPa, x2 = 0.7524 | 657.81 ± 0.39
343.06 K, 15000 kPa, x2 = 0.2185 | 695.27 ± 0.37
343.06 K, 15000 kPa, x2 = 0.7524 | 658.89 ± 0.4
343.06 K, 16000 kPa, x2 = 0.2185 | 696.19 ± 0.38
343.06 K, 16000 kPa, x2 = 0.7524 | 659.96 ± 0.41
343.06 K, 17000 kPa, x2 = 0.2185 | 697.07 ± 0.39
343.06 K, 17000 kPa, x2 = 0.7524 | 661 ± 0.42
343.06 K, 18000 kPa, x2 = 0.2185 | 697.94 ± 0.39
343.06 K, 18000 kPa, x2 = 0.7524 | 662.03 ± 0.43
343.06 K, 19000 kPa, x2 = 0.2185 | 698.83 ± 0.4
343.06 K, 19000 kPa, x2 = 0.7524 | 663.03 ± 0.44
343.06 K, 20000 kPa, x2 = 0.2185 | 699.68 ± 0.41
343.06 K, 20000 kPa, x2 = 0.7524 | 664.01 ± 0.45
343.06 K, 21000 kPa, x2 = 0.2185 | 700.53 ± 0.42
343.06 K, 21000 kPa, x2 = 0.7524 | 664.97 ± 0.46
343.06 K, 22000 kPa, x2 = 0.2185 | 701.36 ± 0.43
